# How the values were obtained:
# Assay type in all cases: functional
# Enterobacter cloacae [1] = test: Antimicrobial activity against Enterobacter cloacae with derepressed AmpC beta-lactamsae assessed as resistant isolate by broth microdilution method
# Escherichia coli [2] = test: Antimicrobial activity against Non-ESBL Escherichia coli assessed as resistant isolate by broth microdilution method
# Citrobacter [3] = test: Antimicrobial activity against Citrobacter with derepressed AmpC beta-lactamsae assessed as resistant isolate by broth microdilution method
# Klebsiella pneumoniae [4] = test: Antimicrobial activity against Klebsiella pneumoniae assessed as resistant isolate by broth microdilution method
# Serratia marcescens [5] = test: Antimicrobial activity against ceftazidime susceptible Serratia marcescens by broth microdilution method in presence of Tazobactam
# Escherichia coli [6] = test: Antimicrobial activity against ESBL producing Escherichia coli by broth microdilution method in presence of Tazobactam
# Enterobacter cloacae [7] = test: Antimicrobial activity against Enterobacter cloacae with nonderepressed AmpC beta-lactamsae assessed as susceptible isolate by broth microdilution method in presence of Tazobactam
# Acinetobacter [8] = test: Antimicrobial activity against imipenem non-susceptible Acinetobacter assessed as susceptible isolate by broth microdilution method in presence of Tazobactam
# Enterobacter cloacae [9] = test: Antimicrobial activity against Enterobacter cloacae with nonderepressed AmpC beta-lactamsae assessed as intermediate isolate by broth microdilution method in presence of Tazobactam
# Escherichia coli [10] = test: Antimicrobial activity against Non-ESBL Escherichia coli by broth microdilution method in presence of Tazobactam
# Enterobacter cloacae [11] = test: Antimicrobial activity against Enterobacter cloacae with derepressed AmpC beta-lactamsae by broth microdilution method in presence of Tazobactam
# Pseudomonas aeruginosa [12] = test: Antimicrobial activity against ceftazidime non-susceptible Pseudomonas aeruginosa by broth microdilution method in presence of Tazobactam
# Escherichia coli [13] = test: Antimicrobial activity against ESBL producing Escherichia coli assessed as susceptible isolate by broth microdilution method in presence of Tazobactam
# Serratia marcescens [14] = test: Antimicrobial activity against Ceftazidime susceptible Serratia marcescens assessed as intermediate isolate by broth microdilution method in presence of tazobactam
# Klebsiella pneumoniae [15] = test: Antimicrobial activity against ESBL producing Klebsiella pneumoniae assessed as intermediate isolate by broth microdilution method in presence of Tazobactam
# Klebsiella pneumoniae [16] = test: Antimicrobial activity against Non-ESBL Klebsiella pneumoniae by broth microdilution method in presence of Tazobactam
# Proteus mirabilis [17] = test: Antimicrobial activity against Non-ESBL Proteus mirabilis assessed as susceptible isolate by broth microdilution method in presence of Tazobactam
# Enterobacteriaceae [18] = test: Antimicrobial activity against Ceftazidime non-susceptible Enterobacteriaceae assessed as intermediate isolate by broth microdilution method in presence of tazobactam
# Enterobacteriaceae [19] = test: Antimicrobial activity against ceftazidime non-susceptible Enterobacteriaceae assessed as susceptible isolate by broth microdilution method in presence of Tazobactam
# Klebsiella pneumoniae [20] = test: Antimicrobial activity against ESBL producing Klebsiella pneumoniae assessed as susceptible isolate by broth microdilution method in presence of Tazobactam
# Acinetobacter [21] = test: Antimicrobial activity against imipenem non-susceptible Acinetobacter by broth microdilution method in presence of Tazobactam
# Pseudomonas aeruginosa [22] = test: Antimicrobial activity against imipenem non-susceptible Pseudomonas aeruginosa assessed as susceptible isolate by broth microdilution method in presence of Tazobactam
# Serratia marcescens [23] = test: Antimicrobial activity against Ceftazidime non-susceptible Serratia marcescens by broth microdilution method in presence of tazobactam
# Pseudomonas aeruginosa [24] = test: Antimicrobial activity against imipenem susceptible Pseudomonas aeruginosa assessed as intermediate isolate by broth microdilution method in presence of Tazobactam
# Proteus mirabilis [25] = test: Antimicrobial activity against ESBL producing Proteus mirabilis by broth microdilution method in presence of Tazobactam
# Enterobacteriaceae [26] = test: Antimicrobial activity against Ceftazidime non-susceptible Enterobacteriaceae assessed as resistant isolate by broth microdilution method in presence of tazobactam
# Pseudomonas aeruginosa [27] = test: Antimicrobial activity against Pseudomonas aeruginosa isolated from ICU patient assessed as resistant isolate by broth microdilution method
# Pseudomonas aeruginosa [28] = test: Antimicrobial activity against Ceftazidime susceptible Pseudomonas aeruginosa assessed as intermediate isolate by broth microdilution method in presence of tazobactam
# Proteus mirabilis [29] = test: Antimicrobial activity against ESBL producing Proteus mirabilis assessed as susceptible isolate by broth microdilution method in presence of Tazobactam
# Citrobacter [30] = test: Antimicrobial activity against Citrobacter with derepressed AmpC beta-lactamsae assessed as resistant isolate by broth microdilution method in presence of Tazobactam
# Pseudomonas aeruginosa [31] = test: Antimicrobial activity against Pseudomonas aeruginosa isolated from non-ICU patient assessed as intermediate isolate by broth microdilution method in presence of Tazobactam
# Proteus mirabilis [32] = test: Antimicrobial activity against Non-ESBL Proteus mirabilis assessed as intermediate isolate by broth microdilution method in presence of Tazobactam
# Enterobacteriaceae [33] = test: Antimicrobial activity against ceftazidime-susceptible Enterobacteriaceae assessed as susceptible isolate by broth microdilution method in presence of Tazobactam
# Klebsiella pneumoniae [34] = test: Antimicrobial activity against ESBL producing Klebsiella pneumoniae assessed as resistant isolate by broth microdilution method in presence of Tazobactam
# Enterobacter cloacae [35] = test: Antimicrobial activity against Enterobacter cloacae with derepressed AmpC beta-lactamsae assessed as susceptible isolate by broth microdilution method in presence of Tazobactam
# Proteus mirabilis [36] = test: Antimicrobial activity against ESBL producing Proteus mirabilis assessed as intermediate isolate by broth microdilution method in presence of Tazobactam
# Acinetobacter [37] = test: Antimicrobial activity against imipenem non-susceptible Acinetobacter assessed as resistant isolate by broth microdilution method in presence of Tazobactam
# Enterobacter cloacae [38] = test: Antimicrobial activity against Enterobacter cloacae with derepressed AmpC beta-lactamsae assessed as intermediate isolate by broth microdilution method in presence of Tazobactam
# Enterobacter cloacae [39] = test: Antimicrobial activity against Enterobacter cloacae with derepressed AmpC beta-lactamsae assessed as resistant isolate by broth microdilution method in presence of Tazobactam
# Escherichia coli [40] = test: Antimicrobial activity against Non-ESBL Escherichia coli assessed as susceptible isolate by broth microdilution method in presence of Tazobactam
# Pseudomonas aeruginosa [41] = test: Antimicrobial activity against imipenem non-susceptible Pseudomonas aeruginosa assessed as intermediate isolate by broth microdilution method in presence of Tazobactam
# Serratia marcescens [42] = test: Antimicrobial activity against ceftazidime susceptible Serratia marcescens assessed as susceptible isolate by broth microdilution method in presence of Tazobactam
# Citrobacter [43] = test: Antimicrobial activity against Citrobacter with nonderepressed AmpC beta-lactamsae assessed as intermediate isolate by broth microdilution method in presence of Tazobactam
# Pseudomonas aeruginosa [44] = test: Antimicrobial activity against imipenem susceptible Pseudomonas aeruginosa assessed as susceptible isolate by broth microdilution method in presence of Tazobactam
# Pseudomonas aeruginosa [45] = test: Antimicrobial activity against imipenem non-susceptible Pseudomonas aeruginosa by broth microdilution method in presence of Tazobactam
# Acinetobacter [46] = test: Antimicrobial activity against imipenem susceptible Acinetobacter assessed as intermediate isolate by broth microdilution method in presence of Tazobactam
# Enterobacter cloacae [47] = test: Antimicrobial activity against Enterobacter cloacae with nonderepressed AmpC beta-lactamsae by broth microdilution method in presence of Tazobactam
smiles,measurement,setting,value
CC(C)(O/N=C(\C(=O)N[C@@H]1C(=O)N2C(C(=O)[O-])=C(C[n+]3ccccc3)CS[C@H]12)c1csc(N)n1)C(=O)O [CEFTAZIDIME],Activity,Enterobacter cloacae [1],97.1%
same,Activity,Escherichia coli [2],0.9%
same,Activity,Citrobacter [3],100%
C[C@@H](O)[C@H]1C(=O)N2C(C(=O)O)=C(S[C@@H]3CN[C@H](C(=O)N(C)C)C3)[C@H](C)[C@H]12 [MEROPENEM],Activity,Klebsiella pneumoniae [4],0.3%
CCN1CCN(C(=O)N[C@@H](C(=O)N[C@@H]2C(=O)N3[C@@H]2SC(C)(C)[C@@H]3C(=O)O)c2ccccc2)C(=O)C1=O [PIPERACILLIN],MIC50,Serratia marcescens [5],4 µg/mL
same,MIC90,Serratia marcescens [5],16 µg/mL
same,MIC50,Escherichia coli [6],16 µg/mL
same,MIC90,Escherichia coli [6],> 128 µg/mL
same,Activity,Enterobacter cloacae [7],93.3%
same,Activity,Acinetobacter [8],0%
same,Activity,Enterobacter cloacae [9],3.2%
same,MIC50,Escherichia coli [10],4 µg/mL
same,MIC90,Escherichia coli [10],8 µg/mL
same,MIC50,Enterobacter cloacae [11],> 128 µg/mL
same,MIC90,Enterobacter cloacae [11],> 128 µg/mL
same,MIC50,Pseudomonas aeruginosa [12],> 128 µg/mL
same,MIC90,Pseudomonas aeruginosa [12],> 128 µg/mL
same,Activity,Escherichia coli [13],53.3%
same,Activity,Serratia marcescens [14],4.4%
same,Activity,Klebsiella pneumoniae [15],11.4%
same,MIC50,Klebsiella pneumoniae [16],4 µg/mL
same,MIC90,Klebsiella pneumoniae [16],16 µg/mL
same,Activity,Proteus mirabilis [17],99.4%
same,Activity,Enterobacteriaceae [18],20.6%
same,Activity,Enterobacteriaceae [19],15.6%
same,Activity,Klebsiella pneumoniae [20],11.4%
same,MIC50,Acinetobacter [21],> 128 µg/mL
same,MIC90,Acinetobacter [21],> 128 µg/mL
same,Activity,Pseudomonas aeruginosa [22],72.9%
same,MIC50,Serratia marcescens [23],64 µg/mL
same,MIC90,Serratia marcescens [23],> 128 µg/mL
same,Activity,Pseudomonas aeruginosa [24],0%
same,MIC,Proteus mirabilis [25],0.5 µg/mL
same,Activity,Enterobacteriaceae [26],63.8%
same,MIC50,Pseudomonas aeruginosa [27],16 µg/mL
same,Activity,Pseudomonas aeruginosa [28],0%
same,Activity,Proteus mirabilis [29],100%
same,Activity,Citrobacter [30],67.3%
same,Activity,Pseudomonas aeruginosa [31],0%
same,Activity,Proteus mirabilis [32],0.3%
same,Activity,Enterobacteriaceae [33],95.8%
same,Activity,Klebsiella pneumoniae [34],77.3%
same,Activity,Enterobacter cloacae [35],5.8%
same,Activity,Proteus mirabilis [36],0%
same,Activity,Acinetobacter [37],96.1%
same,Activity,Enterobacter cloacae [38],11.7%
same,Activity,Enterobacter cloacae [39],82.5%
same,Activity,Escherichia coli [40],93.6%
same,Activity,Pseudomonas aeruginosa [41],0%
same,Activity,Serratia marcescens [42],93.6%
same,Activity,Citrobacter [43],3.7%
same,Activity,Pseudomonas aeruginosa [44],90.6%
same,MIC50,Pseudomonas aeruginosa [45],16 µg/mL
same,MIC90,Pseudomonas aeruginosa [45],> 128 µg/mL
same,Activity,Acinetobacter [46],18.1%
same,MIC50,Enterobacter cloacae [47],4 µg/mL
same,MIC90,Enterobacter cloacae [47],16 µg/mL

# From ChEMBL document CHEMBL1275550, “In vitro activity of doripenem, a carbapenem for the treatment of challenging infections caused by gram-negative bacteria, against recent clinical isolates from the United States” (2008)
